We go through 16 compounds from US9079866B2, “Flap modulators” (JANSSEN PHARMACEUTICA NV, priority 2013, dated 2015).

Structures can show the parent of a compound that is named as a salt.

The test system of the first assay is leukotriene pathway in human whole blood (LTB4 levels). Nature of the assay: Human whole blood assay (A23187-stimulated LTB4). The note with it: Homo sapiens, human whole blood diluted 1:1, A23187-stimulated; read-out: LTB4 IC50 1:1. The format is cell-based. As to the method:
The ability of the compounds of the present invention to treat a FLAP-mediated disease and/or disorder, or associated symptoms or complications thereof, was determined using the following procedures. Binding assay data represent the average value obtained from two different assay plates, with samples run in duplicate on each plate. Human whole blood assay data represent a single replicate on an assay plate using whole blood from at least one healthy donor.
An in vitro cellular assay was performed using human whole blood collected in heparin-containing tubes, which was used to test the ability of compounds to modulate the leukotriene pathway in human whole blood. The blood was diluted 1:1 in RPMI medium, pre-incubated for 15 min at 37° Celsius with test compounds at various concentrations, and then stimulated with calcium ionophore, A23187 (7 μg/mL), for 30 min at 37° Celsius. The samples were then centrifuged and plasma was removed. The plasma was diluted in assay buffer and LTB4 levels were measured using a commercial kit (Enzo Life Sciences). The concentration of each compound that was required for half-maximal inhibition (modulation) of recombinant enzyme activity (IC50) was calculated by a 4-parameter equation using the program GraphPad Prism (GraphPad software).
Take `Fc1cc(-c2cccnc2OCC2CC2)ccc1-c1cnc2[nH]ccc2n1` [Example 400, 2-{4-[2-(Cyclopropylmethoxy)pyridin-3-yl]-2-fluorophenyl}-5H-pyrrolo[2,3-b]pyrazine]: the IC50 – broadly, the midpoint of a concentration-inhibition curve – is 729 nM.

`Nc1cnc(-c2ccc(-c3cccnc3OC3CCCCC3)cc2F)cn1` [Example 403, 5-{4-[2-(Cyclohexyloxy)pyridin-3-yl]-2-fluorophenyl}pyrazin-2-amine]: the IC50 came out at 389 nM. On the same count and under the same terms, as for `N#Cc1nc(-c2ccc(-c3ccccc3S(=O)(=O)NCCO)cc2F)cnc1N` [Example 413, 4′-(5-Amino-6-cyanopyrazin-2-yl)-3′-fluoro-N-(2-hydroxyethyl)biphenyl-2-sulfonamide], the figure is 448 nM; as for `N#Cc1nc(-c2ccc(-c3ccccc3S(=O)(=O)N3CCNC(=O)C3)cc2F)cnc1N` [Example 414, 3-Amino-6-{3-fluoro-2′-[(3-oxopiperazin-1-yl)sulfonyl]biphenyl-4-yl}pyrazine-2-carbonitrile], 120 nM. Consider `CC(C)(C)NS(=O)(=O)c1ccccc1-c1ccc(-c2ccc3[nH]ccc3c2)c(F)c1` [Example 421, N-tert-Butyl-3′-fluoro-4′-(1H-indol-5-yl)biphenyl-2-sulfonamide], for which the IC50 is above 10000 nM. Turning to `CC(C)(C)NS(=O)(=O)c1ccccc1-c1ccc(-c2cnc(N)c(F)c2)c(F)c1` [Example 430, 4′-(6-Amino-5-fluoropyridin-3-yl)-N-tert-butyl-3′-fluorobiphenyl-2-sulfonamide], the IC50 was found to be 59 nM. On the same count and under the same terms, with `Cc1nc(-c2ccc(-c3ccccc3S(N)(=O)=O)cc2F)cnc1N` [Example 446, 4′-(5-Amino-6-methylpyrazin-2-yl)-3′-fluorobiphenyl-2-sulfonamide] the figure was 1370 nM; with `CC(C)(C)NS(=O)(=O)c1ccccc1-c1ccc(-c2cc(N)c3[nH]ccc3c2)c(F)c1` [Example 458, 4′-(7-Amino-1H-indol-5-yl)-N-tert-butyl-3′-fluorobiphenyl-2-sulfonamide], 53 nM. Consider `Nc1cnc(-c2ccc(-c3ccccc3S(N)(=O)=O)c(F)c2F)cn1` [Example 464, 4′-(5-Aminopyrazin-2-yl)-2′,3′-difluorobiphenyl-2-sulfonamide], for which the IC50 was above 10000 nM. On the same count and under the same terms, as for `CC(C)(C)NS(=O)(=O)c1ccccc1-c1ccc(-c2cnc(N)nc2)c(F)c1F` [Example 466, 4′-(2-Aminopyrimidin-5-yl)-N-tert-butyl-2′,3′-difluorobiphenyl-2-sulfonamide trifluoroacetic acid salt], the figure is 990 nM; as for `CS(=O)(=O)c1cc(F)ccc1-c1ccc(-c2cnc3[nH]ccc3n2)c(F)c1` [Example 489, 2-[3,4′-Difluoro-2′-(methylsulfonyl)biphenyl-4-yl]-5H-pyrrolo[2,3-b]pyrazine], 307 nM. With `Nc1cnc(-c2ccc(-c3ccccc3Oc3ncccn3)cc2F)cn1` [Example 526, 5-[3-Fluoro-2′-(pyrimidin-2-yloxy)biphenyl-4-yl]pyrazin-2-amine], the IC50 amounted to 19 nM.

Still in this assay, the particulars now being: Homo sapiens, human whole blood diluted 1:1 in RPMI, A23187-stimulated LTB4; read-out: LTB4 IC50 1:1.
With `CSc1ccc(F)cc1-c1ccc(-c2cnc3[nH]ccc3n2)c(F)c1` [Example 383, 2-[3,5′-Difluoro-2′-(methylsulfanyl)biphenyl-4-yl]-5H-pyrrolo[2,3-b]pyrazine], the IC50 was determined as 1630 nM.

Consider `CCSc1ccccc1-c1ccc(-c2cnc3[nH]ccc3n2)c(F)c1` [Example 384, 2-[2′-(Ethylsulfanyl)-3-fluorobiphenyl-4-yl]-5H-pyrrolo[2,3-b]pyrazine], for which the IC50 came to 82 nM.

Turning to `NC1CCN(S(=O)(=O)c2ccccc2-c2ccc(-c3cnc4c(c3)OCCN4)c(F)c2)CC1` [Example 389, 1-{[4′-(3,4-Dihydro-2H-pyrido[3,2-b][1,4]oxazin-7-yl)-3′-fluorobiphenyl-2-yl]sulfonyl}piperidin-4-amine], the IC50 was determined as 137 nM.

`C[C@H](CO)NS(=O)(=O)c1ccccc1-c1ccc(-c2cnc3c(c2)OCCN3)c(F)c1` [Example 390, 4′-(3,4-Dihydro-2H-pyrido[3,2-b][1,4]oxazin-7-yl)-3′-fluoro-N-[(1R)-2-hydroxy-1-methylethyl]biphenyl-2-sulfonamide]: the IC50 turned out to be 10 nM.
